In patent US20260028365A1 (BIOGEN MA INC., priority 2022, published 2026):
Read-outs that look alike come from different tables or passages of the source.

Tests used:
[1] = biological target: JH2 domain of human Tyk2 (Homo sapiens (Human), UniProt P29597); assay: JH2 Biochemical Assay (TR-FRET probe displacement); format: binding
[2] = biological target: Tyk2 (Homo sapiens (Human), UniProt P29597); assay: pSTAT4 Cell Assay (MSD, NK92 cells); format: cell-based
[3] = biological target: JAK2 (Homo sapiens (Human), UniProt O60674); assay: pSTAT5 Cell Assay (MSD, TF1 cells); format: cell-based
Method: Compounds of the disclosure were assessed for their ability to inhibit the JAK2 kinase activity on STAT5 utilizing an MSD-platform plate-based assay format. TF1 cells natively expressing STAT5 and JAK2 were serum-starved to reduce background phosphorylation levels, then cells were treated with compounds of disclosure for 1 hour with a 10-point four-fold dilution series starting at 10 μM. Cells were then stimulated with 30 ng/mL IL-3 for 15 minutes. Cells were then lysed and pSTAT5 levels were quantitated using an MSD plate-based assay with anti-STAT5 antibodies. The data were normalized and the percent activity versus log concentration of compound was fitted with a 4-parameter logistic model to generate a curve and an IC50 value.

[4] = biological target: JAK1 (Homo sapiens (Human), UniProt P23458); assay: pSTAT3 Cell Assay (MSD, TF1 cells); format: cell-based
Method: The inhibitory potency of compounds of the disclosure against the JAK1 kinase activity on STAT3 was evaluated using an MSD-platform plate-based assay format. TF1 cells natively expressing STAT3 and JAK1 were serum-starved to reduce background phosphorylation levels, then cells were treated with compounds of the disclosure for 1 hour with a 10-point four-fold dilution series starting at 10 μM. Cells were then stimulated with 30 ng/mL interleukin 6 (IL-6) for 15 minutes. Cells were lysed and pSTAT3 levels were quantitated using an MSD plate-based assay with anti-STAT3 antibodies. The data were normalized and the percent activity versus log concentration of compound was fitted with a 4-parameter logistic model to generate IC50 curves.

[5] = JH2 domain of human Tyk2, TR-FRET probe displacement
[6] = TR-FRET probe displacement, JH2 domain of human Tyk2
[7] = TR-FRET probe displacement, JH2 domain

JH2 domain of human Tyk2, sequence (P29597 575-876): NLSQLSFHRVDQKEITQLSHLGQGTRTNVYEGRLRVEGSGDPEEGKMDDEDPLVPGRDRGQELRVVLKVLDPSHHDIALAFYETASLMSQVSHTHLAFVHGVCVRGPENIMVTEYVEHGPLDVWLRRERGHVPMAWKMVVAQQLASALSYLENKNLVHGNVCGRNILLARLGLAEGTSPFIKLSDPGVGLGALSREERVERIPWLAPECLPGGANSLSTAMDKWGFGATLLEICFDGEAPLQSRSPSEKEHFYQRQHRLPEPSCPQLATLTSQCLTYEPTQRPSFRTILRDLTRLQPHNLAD
JAK2, sequence (O60674 whole entry): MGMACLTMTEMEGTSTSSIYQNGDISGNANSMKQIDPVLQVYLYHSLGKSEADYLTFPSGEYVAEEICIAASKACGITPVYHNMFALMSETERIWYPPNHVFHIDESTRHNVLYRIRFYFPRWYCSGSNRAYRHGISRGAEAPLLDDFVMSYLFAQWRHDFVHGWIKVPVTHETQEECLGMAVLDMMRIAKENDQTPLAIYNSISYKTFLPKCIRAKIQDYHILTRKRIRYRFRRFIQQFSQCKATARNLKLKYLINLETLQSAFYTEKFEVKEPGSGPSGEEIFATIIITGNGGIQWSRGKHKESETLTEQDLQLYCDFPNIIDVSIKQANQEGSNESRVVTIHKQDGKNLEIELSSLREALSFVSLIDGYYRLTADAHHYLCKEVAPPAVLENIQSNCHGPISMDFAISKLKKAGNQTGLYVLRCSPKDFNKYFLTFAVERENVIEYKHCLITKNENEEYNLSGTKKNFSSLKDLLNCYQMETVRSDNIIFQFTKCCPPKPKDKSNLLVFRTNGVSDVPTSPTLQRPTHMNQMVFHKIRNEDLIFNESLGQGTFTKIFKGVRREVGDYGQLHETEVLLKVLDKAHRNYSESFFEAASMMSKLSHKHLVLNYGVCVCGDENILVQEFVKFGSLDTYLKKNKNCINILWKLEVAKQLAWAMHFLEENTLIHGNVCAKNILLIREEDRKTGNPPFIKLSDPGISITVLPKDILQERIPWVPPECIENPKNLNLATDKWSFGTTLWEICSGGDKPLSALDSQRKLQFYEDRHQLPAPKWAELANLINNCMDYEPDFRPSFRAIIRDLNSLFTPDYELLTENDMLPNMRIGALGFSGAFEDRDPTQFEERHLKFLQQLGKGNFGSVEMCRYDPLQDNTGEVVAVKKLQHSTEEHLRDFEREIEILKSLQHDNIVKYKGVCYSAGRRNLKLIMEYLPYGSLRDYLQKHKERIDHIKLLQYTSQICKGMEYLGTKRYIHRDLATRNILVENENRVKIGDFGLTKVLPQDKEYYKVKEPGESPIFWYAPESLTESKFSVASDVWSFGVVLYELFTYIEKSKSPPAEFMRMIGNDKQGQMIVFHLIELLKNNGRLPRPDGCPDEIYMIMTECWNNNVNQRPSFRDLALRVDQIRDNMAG
Tyk2, sequence (P29597 whole entry): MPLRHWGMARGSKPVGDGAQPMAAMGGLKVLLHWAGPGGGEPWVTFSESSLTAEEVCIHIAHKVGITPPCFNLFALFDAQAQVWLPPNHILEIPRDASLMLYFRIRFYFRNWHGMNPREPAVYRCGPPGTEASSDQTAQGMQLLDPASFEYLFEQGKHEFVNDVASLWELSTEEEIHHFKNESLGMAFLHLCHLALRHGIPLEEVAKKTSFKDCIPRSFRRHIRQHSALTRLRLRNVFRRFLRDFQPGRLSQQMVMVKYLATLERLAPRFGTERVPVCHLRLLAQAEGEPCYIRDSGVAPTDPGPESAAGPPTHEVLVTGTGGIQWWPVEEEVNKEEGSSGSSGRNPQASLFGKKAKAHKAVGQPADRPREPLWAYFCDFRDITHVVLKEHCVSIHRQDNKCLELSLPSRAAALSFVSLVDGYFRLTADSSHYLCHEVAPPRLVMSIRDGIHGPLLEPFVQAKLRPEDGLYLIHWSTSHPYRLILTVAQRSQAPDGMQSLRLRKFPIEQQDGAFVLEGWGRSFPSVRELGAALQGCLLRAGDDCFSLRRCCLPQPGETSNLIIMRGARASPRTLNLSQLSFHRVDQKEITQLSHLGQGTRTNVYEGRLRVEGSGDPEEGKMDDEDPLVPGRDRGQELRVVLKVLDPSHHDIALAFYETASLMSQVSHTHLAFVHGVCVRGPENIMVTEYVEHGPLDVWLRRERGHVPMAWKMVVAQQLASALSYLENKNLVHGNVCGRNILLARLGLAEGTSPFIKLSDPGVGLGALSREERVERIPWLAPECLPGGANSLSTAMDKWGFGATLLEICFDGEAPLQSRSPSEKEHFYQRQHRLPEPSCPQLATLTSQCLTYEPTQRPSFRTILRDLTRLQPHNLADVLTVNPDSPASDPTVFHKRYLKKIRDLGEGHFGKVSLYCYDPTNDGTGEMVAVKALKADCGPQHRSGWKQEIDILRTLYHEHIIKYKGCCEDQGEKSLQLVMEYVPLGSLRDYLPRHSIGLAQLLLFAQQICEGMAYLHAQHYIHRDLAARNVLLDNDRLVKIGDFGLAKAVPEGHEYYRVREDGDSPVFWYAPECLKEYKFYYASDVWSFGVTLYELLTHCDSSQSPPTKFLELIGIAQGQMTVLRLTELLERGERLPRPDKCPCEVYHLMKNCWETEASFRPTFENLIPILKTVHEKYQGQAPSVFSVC
JAK1, sequence (P23458 whole entry): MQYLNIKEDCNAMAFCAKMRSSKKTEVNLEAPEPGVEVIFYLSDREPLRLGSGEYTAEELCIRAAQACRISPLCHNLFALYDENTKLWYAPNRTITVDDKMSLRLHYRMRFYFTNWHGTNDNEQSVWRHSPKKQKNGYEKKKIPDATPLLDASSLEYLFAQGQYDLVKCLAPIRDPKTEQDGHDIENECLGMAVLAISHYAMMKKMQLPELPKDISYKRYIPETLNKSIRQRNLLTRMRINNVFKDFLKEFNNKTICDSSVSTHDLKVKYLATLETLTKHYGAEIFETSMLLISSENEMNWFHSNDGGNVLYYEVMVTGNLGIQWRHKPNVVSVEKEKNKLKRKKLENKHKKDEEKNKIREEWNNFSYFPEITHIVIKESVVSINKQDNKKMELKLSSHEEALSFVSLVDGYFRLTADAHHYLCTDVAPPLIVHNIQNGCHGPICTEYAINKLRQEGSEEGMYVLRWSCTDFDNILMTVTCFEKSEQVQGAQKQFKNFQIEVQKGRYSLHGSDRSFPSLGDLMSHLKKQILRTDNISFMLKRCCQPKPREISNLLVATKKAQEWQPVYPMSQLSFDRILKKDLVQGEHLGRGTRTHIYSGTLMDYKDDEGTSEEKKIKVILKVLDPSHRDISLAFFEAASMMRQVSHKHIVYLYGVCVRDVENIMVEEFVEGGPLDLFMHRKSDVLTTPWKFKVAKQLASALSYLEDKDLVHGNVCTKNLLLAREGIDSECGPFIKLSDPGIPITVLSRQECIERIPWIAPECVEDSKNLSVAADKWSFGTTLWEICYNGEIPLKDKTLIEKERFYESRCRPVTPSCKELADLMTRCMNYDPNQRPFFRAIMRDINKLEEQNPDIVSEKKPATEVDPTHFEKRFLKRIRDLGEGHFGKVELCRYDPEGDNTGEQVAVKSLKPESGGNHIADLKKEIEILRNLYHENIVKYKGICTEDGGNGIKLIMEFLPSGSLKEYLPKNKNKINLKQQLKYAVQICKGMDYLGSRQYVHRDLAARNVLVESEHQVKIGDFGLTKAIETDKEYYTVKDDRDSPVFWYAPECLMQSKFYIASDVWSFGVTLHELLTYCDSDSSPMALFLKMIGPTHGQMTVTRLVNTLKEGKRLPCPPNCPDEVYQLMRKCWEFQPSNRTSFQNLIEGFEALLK

SMILES	IC50 [1, 5] [nM]	IC50 ([2]; MSD) [nM]	IC50 ([3]; IL-3 stimulated, MSD) [nM]	IC50 [1, 6] [nM]	IC50 ([3]; IL-3 stimulation, MSD) [nM]	IC50 ([4]; IL-6 stimulation, MSD) [nM]	other results
CCc1cc(Nc2cc(NC(C)=O)ncc2-c2coc(C)n2)nc(C(C)(F)F)n1 [Example 584, N-(4-((2-(1,1-difluoroethyl)-6-ethylpyrimidin-4-yl)amino)-5-(2-methyloxazol-4-yl)pyridin-2-yl)acetamide]	≤ 10	≤ 10	≥ 1000	–	–	–	IC50 ([4]; IL-6 stimulated, MSD): ≥ 1000 nM
COc1cnc(NC(C)=O)cc1Nc1cc(OC2CC2)nc(C(C)(F)F)n1 [Example 91, N-(4-((6-cyclopropoxy-2-(1,1-difluoroethyl)pyrimidin-4-yl)amino)-5-methoxypyridin-2-yl)acetamide]	–	10 to 100	–	≤ 10	≥ 1000	≥ 1000	–
[2H]C([2H])([2H])C([2H])([2H])Oc1cnc(NC(C)=O)cc1Nc1cc(OC2CC2)nc(C(C)(F)F)n1 [Example 489, N-(4-((6-cyclopropoxy-2-(1,1-difluoroethyl)pyrimidin-4-yl)amino)-5-(ethoxy-d5)pyridin-2-yl)acetamide]	≤ 10	≤ 10	≥ 1000	–	–	–	IC50 ([4]; IL-6 stimulated, MSD): ≥ 1000 nM
CC(=O)Nc1cc(Nc2cc(C)nc(C(C)(F)F)n2)c(-c2ncc(F)cn2)cn1 [Example 182, N-(4-((2-(1,1-difluoroethyl)-6-methylpyrimidin-4-yl)amino)-5-(5-fluoropyrimidin-2-yl)pyridin-2-yl)acetamide]	–	10 to 100	–	≤ 10	≥ 1000	≥ 1000	–
CCc1cc(Nc2cc(NC(C)=O)ncc2OC)nc(C(C)(F)F)n1 [Example 36, N-(4-((2-(1,1-difluoroethyl)-6-ethylpyrimidin-4-yl)amino)-5-methoxypyridin-2-yl)acetamide]	–	10 to 100	–	≤ 10	≥ 1000	≥ 1000	–
CCOc1cnc(NC(=O)OC)cc1Nc1cc(C)nc(C(C)(F)F)n1 [Example 360, methyl (4-((2-(1,1-difluoroethyl)-6-methylpyrimidin-4-yl)amino)-5-ethoxypyridin-2-yl)carbamate]	–	10 to 100	–	≤ 10	≥ 1000	≥ 1000	–
COCc1ccc(-c2cnc(NC(C)=O)cc2Nc2ccnc(C(C)(F)F)n2)nc1 [Example 851, N-(4′-((2-(1,1-difluoroethyl)pyrimidin-4-yl)amino)-5-(methoxymethyl)-[2,3′-bipyridin]-6′-yl)acetamide]	–	–	–	–	–	–	IC50 [1, 7]: ≤ 10 nM; IC50 [2]: ≤ 10 nM; IC50 ([3]; IL-3 stimulated): ≥ 1000 nM; IC50 ([4]; IL-6 stimulated): ≥ 1000 nM
CCOc1cnc(NC(C)=O)cc1Nc1cc(O[C@H]2C[C@H](OC)C2)nc(C(C)(F)F)n1 [Example 16, N-(4-((2-(1,1-difluoroethyl)-6-((1r,3r)-3-methoxycyclobutoxy)pyrimidin-4-yl)amino)-5-ethoxypyridin-2-yl)acetamide]	–	≤ 10	–	≤ 10	≥ 1000	≥ 1000	–
CCOc1cnc(NC(C)=O)cc1Nc1ccnc(C(C)(F)F)n1 [Example 4, N-(4-((2-(1,1-difluoroethyl)pyrimidin-4-yl)amino)-5-ethoxypyridin-2-yl)acetamide]	–	10 to 100	–	≤ 10	≥ 1000	≥ 1000	–
CC(=O)Nc1cc(Nc2ccnc(C(C)(F)F)n2)c(-c2ccc(F)cn2)cn1 [Example 580, N-(4′-((2-(1,1-difluoroethyl)pyrimidin-4-yl)amino)-5-fluorO[2,3′-bipyridin]-6′-yl)acetamide]	≤ 10	≤ 10	≥ 1000	–	–	–	IC50 ([4]; IL-6 stimulated, MSD): ≥ 1000 nM
CCOc1cnc(NC(C)=O)cc1Nc1cc(-c2cnn(C(C)C)c2)nc(C(C)(F)F)n1 [Example 306, N-(4-((2-(1,1-difluoroethyl)-6-(1-isopropyl-1H-pyrazol-4-yl)pyrimidin-4-yl)amino)-5-ethoxypyridin-2-yl)acetamide]	–	≤ 10	–	≤ 10	≥ 1000	≥ 1000	–
COCCOc1cnc(NC(C)=O)cc1Nc1cncc(C(C)(F)F)n1 [Example 67, N-(4-((6-(1,1-difluoroethyl)pyrazin-2-yl)amino)-5-(2-methoxyethoxy)pyridin-2-yl)acetamide]	–	10 to 100	–	≤ 10	≥ 1000	≥ 1000	–
CO[C@H]1C[C@@H](Oc2cnc(NC(C)=O)cc2Nc2cc(OC3CC3)nc(C(C)(F)F)n2)C1 [Example 351, N-(4-((6-cyclopropoxy-2-(1,1-difluoroethyl)pyrimidin-4-yl)amino)-5-((1s,3s)-3-methoxycyclobutoxy)pyridin-2-yl)acetamide]	–	≤ 10	–	≤ 10	≥ 1000	≥ 1000	–
COc1ccc(-c2cnc(NC(C)=O)cc2Nc2ccnc(C(C)(C)F)n2)nn1 [Example 835, N-(4-((2-(2-fluoropropan-2-yl)pyrimidin-4-yl)amino)-5-(6-methoxypyridazin-3-yl)pyridin-2-yl)acetamide]	–	–	–	–	–	–	IC50 [1, 7]: ≤ 10 nM; IC50 [2]: ≤ 10 nM; IC50 ([3]; IL-3 stimulated): ≥ 1000 nM; IC50 ([4]; IL-6 stimulated): ≥ 1000 nM
CCc1cc(Nc2cc(NC(C)=O)ncc2-c2ncccn2)nc(C(C)(F)F)n1 [Example 719, N-(4-((2-(1,1-difluoroethyl)-6-ethylpyrimidin-4-yl)amino)-5-(pyrimidin-2-yl)pyridin-2-yl)acetamide]	≤ 10	≤ 10	≥ 1000	–	–	–	IC50 ([4]; IL-6 stimulated, MSD): ≥ 1000 nM
CCOc1cnc(NC(C)=O)cc1Nc1cccc(C(C)(F)F)n1 [Example 1, N-(4-((6-(1,1-difluoroethyl)pyridin-2-yl)amino)-5-ethoxypyridin-2-yl)acetamide]	–	≤ 10	–	≤ 10	≥ 1000	≥ 1000	–
CC(=O)Nc1cc(Nc2cc(C)nc(C(C)(F)F)n2)c(-c2cnc(F)cn2)cn1 [Example 598, N-(4-((2-(1,1-difluoroethyl)-6-methylpyrimidin-4-yl)amino)-5-(5-fluoropyrazin-2-yl)pyridin-2-yl)acetamide]	≤ 10	10 to 100	≥ 1000	–	–	–	IC50 ([4]; IL-6 stimulated, MSD): ≥ 1000 nM
CC(=O)Nc1cc(Nc2cc(OC3CC3)nc(C(C)(F)F)n2)c(OC[C@@H]2COCCO2)cn1 (single isomer, unassigned) [Example 453, (S)-N-(5-((1,4-dioxan-2-yl)methoxy)-4-((6-cyclopropoxy-2-(1,1-difluoroethyl)pyrimidin-4-yl)amino)pyridin-2-yl)acetamide or (R)-N-(5-((1,4-dioxan-2-yl)methoxy)-4-((6-cyclopropoxy-2-(1,1-difluoroethyl)pyrimidin-4-yl)amino)pyridin-2-yl)acetamide]	≤ 10	≤ 10	≥ 1000	–	–	–	IC50 ([4]; IL-6 stimulated, MSD): ≥ 1000 nM
CC(=O)Nc1cc(Nc2cc(OC3CC3)nc(C(C)(F)F)n2)c(OCC2COCCO2)cn1 (centres unmarked) [Example 445, N-(5-((1,4-dioxan-2-yl)methoxy)-4-((6-cyclopropoxy-2-(1,1-difluoroethyl)pyrimidin-4-yl)amino)pyridin-2-yl)acetamide]	≤ 10	≤ 10	≥ 1000	–	–	–	IC50 ([4]; IL-6 stimulated, MSD): ≥ 1000 nM
CC(=O)Nc1cc(Nc2cc(C)nc(C(C)(F)F)n2)c(-c2ccc(C#N)cn2)cn1 [Example 145, N-(5-cyano-4′-((2-(1,1-difluoroethyl)-6-methylpyrimidin-4-yl)amino)-[2,3′-bipyridin]-6′-yl)acetamide]	–	≤ 10	–	≤ 10	≥ 1000	≥ 1000	–
CC(=O)Nc1cc(Nc2cc(C)nc(C(C)(F)F)n2)c(OCC(C)(C)F)cn1 [Example 119, N-(4-((2-(1,1-difluoroethyl)-6-methylpyrimidin-4-yl)amino)-5-(2-fluoro-2-methylpropoxy)pyridin-2-yl)acetamide]	–	10 to 100	–	–	≥ 1000	≥ 1000	–
CC(=O)Nc1cc(Nc2cc(C)nc(C(C)(F)F)n2)c(OCC2COCCO2)cn1 (centres unmarked) [Example 135, N-(5-((1,4-dioxan-2-yl)methoxy)-4-((2-(1,1-difluoroethyl)-6-methylpyrimidin-4-yl)amino)pyridin-2-yl)acetamide]	–	≤ 10	–	–	≥ 1000	≥ 1000	–
Cc1cc(Nc2cc(NC(N)=O)ncc2-c2ccc(C#N)cn2)nc(C(C)(F)F)n1 [Example 292, 1-(5-cyano-4′-((2-(1,1-difluoroethyl)-6-methylpyrimidin-4-yl)amino)-[2,3′-bipyridin]-6′-yl)urea]	–	≤ 10	–	–	≥ 1000	≥ 1000	–
Cc1cc(Nc2cc(NC(N)=O)ncc2-c2ccc(F)cn2)nc(C(C)(F)F)n1 [Example 291, 1-(4′-((2-(1,1-difluoroethyl)-6-methylpyrimidin-4-yl)amino)-5-fluoro-[2,3′-bipyridin]-6′-yl)urea]	–	≤ 10	–	–	≥ 1000	100 to 1000	–
COCCn1ncc(-c2cnc(NC(C)=O)cc2Nc2ccnc(C(C)(F)F)n2)n1 [Example 710, N-(4-((2-(1,1-difluoroethyl)pyrimidin-4-yl)amino)-5-(2-(2-methoxyethyl)-2H-1,2,3-triazol-4-yl)pyridin-2-yl)acetamide]	≤ 10	≤ 10	≥ 1000	–	–	–	–
